Data taken from US9682931B2, “Aryloyl(oxy or amino)pentafluorosulfanylbenzene compound, pharmaceutically acceptable salt thereof, and prodrugs thereof” (UBE INDUSTRIES, LTD., priority 2013, dated 2017).
In brackets after ≈: the same amount, converted by molar mass. Counter-ions that a name gives are not always drawn. Like-named read-outs stand apart in the source and are kept apart here.

Test system: K562 human leukemia-derived cell lines
Experiment: K562 human leukemia cell-proliferation inhibition test
Type: cell-based
Method: K562 Human Leukemia Cell-Proliferation Inhibition Test
A cell proliferation inhibition test using K562 cells was performed. The activity in the presence of a test substance was compared to the activity in the presence of green tea polyphenol (GTP). The materials used in the test are as follows.
Cells: K562 human leukemia-derived cell lines (DS Pharma Biomedical Co., Ltd.)
Control Substance: Green Tea Polyphenols, abbreviation: GTP (LKT Laboratories, Inc.)
Culture solution: 10% equine serum-supplemented RPMI1640 medium
A test substance and a control substance were used by dissolving each of them in DMSO. To a solution (0.99 mL) containing K562 cells in a cell concentration of 20,000 cells/mL, a test substance solution or a control substance solution (0.01 mL) was added and the cells were cultured. Seventy two hours later, a part of the cells was stained with trypan blue and viable cells were counted by a counting chamber.
In Table 2, “IC50” denotes the sample concentration inhibiting 50% of cell proliferation

[1] = Homo sapiens, K562, 72 h, K562 cells, 72 hours, viable cells counted with trypan blue, read-out: IC50
[2] = K562 cells, 72 hours, viable cells counted with trypan blue

| Molecule | IC50 [1] | other results |
| --- | --- | --- |
| COc1cc(/C=C/C(=O)Nc2ccc(S(F)(F)(F)(F)F)cc2)ccc1O [Compound 21, 4-(4-hydroxy-3-methoxycinnamoylamino)pentafluorosulfanylbenzene] | 0.93 µg/mL (≈ 2.35 µM) | – |
| COc1cc(C(=O)Nc2ccc(S(F)(F)(F)(F)F)cc2)ccc1O [Compound 45, 4-(4-hydroxy-3-methoxybenzoylamino)pentafluorosulfanylbenzene] | 0.51 µg/mL (≈ 1.38 µM) | – |
| O=C(Nc1ccc(S(F)(F)(F)(F)F)cc1)c1cccc(O)c1 [Compound 65, 4-(3-hydroxybenzoylamino)pentafluorosulfanylbenzene] | 0.92 µg/mL (≈ 2.71 µM) | – |
| CC(=O)Oc1cc(/C=C/C(=O)Nc2ccc(S(F)(F)(F)(F)F)cc2)cc(OC(C)=O)c1OC(C)=O [Compound 25, 4-(3,4,5-triacetoxycinnamoylamino)pentafluorosulfanylbenzene] | 6.3 µg/mL (≈ 12 µM) | – |
| COc1ccc(/C=C/C(=O)Nc2ccc(S(F)(F)(F)(F)F)cc2)cc1OCC=C(C)C [Compound 41, 4-(3-(3-methyl-2-butenyloxy)-4-methoxycinnamoylamino)pentafluorosulfanylbenzene] | 0.81 µg/mL (≈ 1.75 µM) | – |
| Nc1ccc(C(=O)Nc2ccc(S(F)(F)(F)(F)F)cc2)cc1 [Compound 61, 4-(4-aminobenzoylamino)pentafluorosulfanylbenzene] | 0.086 µg/mL (≈ 0.254 µM) | – |
| C=CCc1cc(/C=C/C(=O)Nc2ccc(S(F)(F)(F)(F)F)cc2)cc(OC)c1O [Compound 46, 4-(4-hydroxy-5-(2-propenyl)-3-methoxycinnamoylamino)pentafluorosulfanylbenzene] | 2.5 µg/mL (≈ 5.74 µM) | – |
| O=C(Nc1ccc(S(F)(F)(F)(F)F)cc1)c1ncccc1O [Compound 68, 4-(3-hydroxypyridin-2-yl)carbonylaminopentafluorosulfanylbenzene] | 4.2 µg/mL (≈ 12.3 µM) | – |
| O=C(Nc1ccc(S(F)(F)(F)(F)F)cc1)c1ccncc1F [Compound 75, 4-(3-fluoropyridin-4-yl)carbonylaminopentafluorosulfanylbenzene] | 2 µg/mL (≈ 5.84 µM) | – |
| O=C(Nc1ccc(S(F)(F)(F)(F)F)cc1)c1cccc(O)n1 [Compound 66, 4-(2-hydroxypyridin-6-yl)carbonylaminopentafluorosulfanylbenzene] | 2.3 µg/mL (≈ 6.76 µM) | – |
| O=C(Nc1ccc(S(F)(F)(F)(F)F)cc1)c1ccc([N+](=O)[O-])cc1 [Compound 62, 4-(4-nitrobenzoylamino)pentafluorosulfanylbenzene] | 0.78 µg/mL (≈ 2.12 µM) | – |
| COc1cc(/C=C/C(=O)Nc2ccc(S(F)(F)(F)(F)F)cc2)cc(OC)c1OCC=C(C)C [Compound 43, 4-(4-(3-methyl-2-butenyloxy)-3,5-dimethoxycinnamoylamino)pentafluorosulfanylbenzene] | 2.8 µg/mL (≈ 5.67 µM) | – |
| O=C(Nc1ccc(S(F)(F)(F)(F)F)cc1)c1cc(O)ncn1 [Compound 69, 4-(4-hydroxypyrimidin-6-yl)carbonylaminopentafluorosulfanylbenzene] | 2 µg/mL (≈ 5.86 µM) | – |
| C=CCOc1ccc(C(=O)Nc2ccc(S(F)(F)(F)(F)F)cc2)cc1OC [Compound 28, 4-(4-(2-propenyloxy)-3-methoxybenzoylamino)pentafluorosulfanylbenzene] | 0.8 µg/mL (≈ 1.95 µM) | – |
| O=C(Oc1cccc(S(F)(F)(F)(F)F)c1)c1cc(O)c(O)c(O)c1 [Compound 8, 3-(3,4,5-trihydroxybenzoyloxy)pentafluorosulfanylbenzene] | 8.5 µg/mL (≈ 22.8 µM) | – |
| O=C(Nc1ccc(S(F)(F)(F)(F)F)cc1)c1ccc(F)c(O)c1 [Compound 58, 4-(3-hydroxy-4-fluorobenzoylamino)pentafluorosulfanylbenzene] | 5.3 µg/mL (≈ 14.8 µM) | – |
| O=C(/C=C/c1ccc(O)c(O)c1)Nc1ccc(S(F)(F)(F)(F)F)cc1 [Compound 56, 4-(3,4-dihydroxycinnamoylamino)pentafluorosulfanylbenzene] | – | IC50 [2]: 0.83 µg/mL (≈ 2.18 µM) |
| COc1cc(C(=O)Nc2ccc(S(F)(F)(F)(F)F)cc2)ccc1N [Compound 60, 4-(4-amino-3-methoxybenzoylamino)pentafluorosulfanylbenzene] | 0.1 µg/mL (≈ 0.271 µM) | – |
| O=C(Nc1ccc(S(F)(F)(F)(F)F)cc1)c1ccnc(F)c1 [Compound 76, 4-(2-fluoropyridin-4-yl)carbonylaminopentafluorosulfanylbenzene] | 2 µg/mL (≈ 5.84 µM) | – |
| O=C(Nc1ccc(S(F)(F)(F)(F)F)cc1)c1ccncn1 [Compound 73, 4-(pyrimidin-4-yl)carbonylaminopentafluorosulfanylbenzene] | 2.3 µg/mL (≈ 7.07 µM) | – |
| O=C(Nc1ccc(S(F)(F)(F)(F)F)cc1)c1ccccn1 [Compound 71, 4-(pyridin-2-yl)carbonylaminopentafluorosulfanylbenzene] | 4.4 µg/mL (≈ 13.6 µM) | – |
| O=C(Nc1ccc(S(F)(F)(F)(F)F)cc1)n1cccc1 [Compound 80, 4-(pyrrol-1-yl)carbonylaminopentafluorosulfanylbenzene] | 4.9 µg/mL (≈ 15.7 µM) | – |
| C=CC(C)Oc1ccc(/C=C/C(=O)Nc2ccc(S(F)(F)(F)(F)F)cc2)cc1OC (stereo not drawn) [Compound 44, 4-(4-(1-methyl-2-propenyloxy)-3-methoxycinnamoylamino)pentafluorosulfanylbenzene] | 1 µg/mL (≈ 2.22 µM) | – |

| Molecule | IC50 [1] | other results |
| --- | --- | --- |
| O=C(Nc1ccc(S(F)(F)(F)(F)F)cc1)c1ccccc1 [Compound 1, 4-benzoylaminopentafluorosulfanylbenzene] | – | IC50 (Homo sapiens, K562, 72 h): 1.5 µg/mL (≈ 4.64 µM) |
| O=C(/C=C/c1ccc2c(c1)OCO2)Nc1ccc(S(F)(F)(F)(F)F)cc1 [Compound 19, 4-(3,4-methylenedioxycinnamoylamino)pentafluorosulfanylbenzene] | – | IC50 (Homo sapiens, K562, 72 h): 0.66 µg/mL (≈ 1.68 µM) |
| C=CCOc1cccc(C(=O)Nc2ccc(S(F)(F)(F)(F)F)cc2)c1 [Compound 64, 4-(3-allyloxybenzoylamino)pentafluorosulfanylbenzene] | 1.1 µg/mL (≈ 2.9 µM) | – |
| O=C(Nc1ccc(S(F)(F)(F)(F)F)cc1)c1ccncc1 [Compound 72, 4-(pyridin-4-yl)carbonylaminopentafluorosulfanylbenzene] | 0.1 µg/mL (≈ 0.308 µM) | – |
| 4-(3,5-dihydroxybenzoylamino)pentafluorosulfanylbenzene [Compound 50] | – | IC50 [2]: 3.5 µg/mL |
| Nc1ccc(C(=O)Nc2ccc(S(F)(F)(F)(F)F)cc2)cc1 [Compound 63, 4-(4-aminobenzoylamino)pentafluorosulfanylbenzene hydrochloride salt] | – | IC50 (Homo sapiens, K562, 72 h): 0.85 µg/mL |
| O=C(Nc1ccc(S(F)(F)(F)(F)F)cc1)c1ccc(O)c(F)c1 [Compound 57, 4-(4-hydroxy-3-fluorobenzoylamino)pentafluorosulfanylbenzene] | 3.3 µg/mL (≈ 9.24 µM) | – |
| O=C(Nc1ccc(S(F)(F)(F)(F)F)cc1)c1ccc(CO)o1 [Compound 33, 4-(5-hydroxymethylfuran-2-yl)carbonylaminopentafluorosulfanylbenzene] | 2.7 µg/mL (≈ 7.87 µM) | – |
| COc1ccc(/C=C/C(=O)Nc2ccc(S(F)(F)(F)(F)F)cc2)cc1O [Compound 52, 4-(3-hydroxy-4-methoxycinnamoylamino)pentafluorosulfanylbenzene] | 0.28 µg/mL (≈ 0.708 µM) | – |
| C=CC(=O)Nc1cccc(S(F)(F)(F)(F)F)c1 [Compound 32, 3-acryloylaminopentafluorosulfanylbenzene] | – | IC50 (Homo sapiens, K562, 72 h): 4.6 µg/mL (≈ 16.8 µM) |
| O=C(Nc1ccc(S(F)(F)(F)(F)F)cc1)c1ncc[nH]1 [Compound 78, 4-(imidazol-2-yl)carbonylaminopentafluorosulfanylbenzene] | 3.4 µg/mL (≈ 10.9 µM) | – |
| C=CCOc1ccc(/C=C/C(=O)Nc2ccc(S(F)(F)(F)(F)F)cc2)cc1OC [Compound 38, 4-(4-(2-propenyloxy)-3-methoxycinnamoylamino)pentafluorosulfanylbenzene] | 0.6 µg/mL (≈ 1.38 µM) | – |
| C=CC(C)(C)Oc1cccc(C(=O)Nc2ccc(S(F)(F)(F)(F)F)cc2)c1 [Compound 48, 4-(3-(1,1-dimethyl-2-propenyloxy)benzoylamino)pentafluorosulfanylbenzene] | 1.9 µg/mL (≈ 4.66 µM) | – |
| O=C(Nc1ccc(S(F)(F)(F)(F)F)cc1)c1cc2cc(O)c(O)cc2oc1=O [Compound 74, 4-(6,7-dihydroxycoumarin-3-yl)carbonylaminopentafluorosulfanylbenzene] | 5 µg/mL (≈ 11.8 µM) | – |
| COc1cc(/C=C/C(=O)Nc2ccc(S(F)(F)(F)(F)F)cc2)cc(OC)c1O [Compound 53, 4-(4-hydroxy-3,5-dimethoxycinnamoylamino)pentafluorosulfanylbenzene] | 0.9 µg/mL (≈ 2.12 µM) | – |
| C=CC(=O)Nc1ccc(S(F)(F)(F)(F)F)cc1 [Compound 31, 4-acryloylaminopentafluorosulfanylbenzene] | – | IC50 (Homo sapiens, K562, 72 h): 0.88 µg/mL (≈ 3.22 µM) |
| C/C=C/COc1ccc(/C=C/C(=O)Nc2ccc(S(F)(F)(F)(F)F)cc2)cc1OC [Compound 42, 4-(4-(2-butenyloxy)-3-methoxycinnamoylamino)pentafluorosulfanylbenzene] | 1.7 µg/mL (≈ 3.78 µM) | – |
| O=C(Nc1ccc(S(F)(F)(F)(F)F)cc1)c1ncccn1 [Compound 70, 4-(pyrimidin-2-yl)carbonylaminopentafluorosulfanylbenzene] | 1.5 µg/mL (≈ 4.61 µM) | – |
| O=C(Nc1ccc(S(F)(F)(F)(F)F)cc1)c1cnco1 [Compound 82, 4-(oxazol-5-yl)carbonylaminopentafluorosulfanylbenzene] | 3.6 µg/mL (≈ 11.5 µM) | – |
| O=C(/C=C/c1cc(O)c(O)c(O)c1)Nc1ccc(S(F)(F)(F)(F)F)cc1 [Compound 24, 4-(3,4,5-trihydroxycinnamoylamino)pentafluorosulfanylbenzene] | 14 µg/mL (≈ 35.2 µM) | – |
| O=C(/C=C/c1ccc(O)cc1O)Nc1ccc(S(F)(F)(F)(F)F)cc1 [Compound 51, 4-(2,4-dihydroxycinnamoylamino)pentafluorosulfanylbenzene] | 1.2 µg/mL (≈ 3.15 µM) | – |
| C/C=C/Cc1cc(/C=C/C(=O)Nc2ccc(S(F)(F)(F)(F)F)cc2)cc(OC)c1O [Compound 47, 4-(4-hydroxy-5-(2-butenyl)-3-methoxycinnamoylamino)pentafluorosulfanylbenzene] | 3.5 µg/mL (≈ 7.79 µM) | – |
